Laboratory results taken from patent US8278455B2, “5- or 6-substituted benzimidazole derivatives as inhibitors of respiratory syncytial virus replication” (Janssen Pharmaceutica N.V., priority 2003, dated 2012).
Each block holds one compound with its values, some of them ahead of it.

Tests used:
[1] = tested on: Respiratory Syncytial Virus; assay: In vitro screening for activity against Respiratory Syncytial Virus (MTT tetrazolium colorimetric assay, HeLa cells); type: cell-based; settings: human respiratory syncytial virus, 168 h; protection against RSV cytopathology in HeLa cells, 7 days after infection; pEC50 = −log of EC50 in molar units
Summary of the method: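 HeLa cells (4×10^5 cells/ml) added 2 h after ~100 TCID50 RSV to wells holding five-fold compound dilutions, in Eagle's medium with 5% FCS and 20 mM Hepes; mock-infected rows gave cytotoxicity. After 7 days at 37 °C, MTT read at 540 minus 690 nm; EC50/CC50 from dose-response, reported as pEC50 categories.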

SMILES: Cc1ccc(O)c(Cn2c(NC3CCN(C)CC3)nc3ccccc32)n1 [Compound 101]
EC50 [1]: 398 nM | melting point: > 260 °C

SMILES: Cc1cccc(NC(=O)c2ccc3nc(NC4CCN(C)CC4)n(Cc4nc(C)ccc4O)c3c2)c1 [Compound 116, 3-(3-hydroxy-6-methyl-pyridin-2-ylmethyl)-2-(1-methyl-piperidin-4-ylamino)-3H-benzoimidazole-5-carboxylic acid m-tolylamide]
EC50 [1]: 7940 nM | melting point: 172 °C

SMILES: Cc1ccc(O)c(Cn2c(NC3CCN(CCN)CC3)nc3ccc(CCc4ccccc4)cc32)n1.Cl [Compound 143, 2-{2-[1-(2-amino-ethyl)-piperidin-4-ylamino]-6-phenethyl-benzoimidazol-1-ylmethyl}-6-methyl-pyridin-3-ol hydrochloride salt]
EC50 [1]: 1 nM | melting point: 181 °C

SMILES: Cc1ccc(O)c(Cn2c(NC3CCN(CCN)CC3)nc3ccc(C=Cc4ccccc4)cc32)n1.Cl [Compound 146, 2-{2-[1-(2-Amino-ethyl)-piperidin-4-ylamino]-6-styryl-benzoimidazol-1-ylmethyl}-6-methyl-pyridin-3-ol hydrochloride salt]
EC50 [1]: 1.26 nM | melting point: 260 °C

SMILES: Cc1ccc(O)c(Cn2c(NC3CCN(CCO)CC3)nc3ccc(CCCN)cc32)n1.Cl [Compound 160, 2-{6-(3-Amino-propyl)-2-[1-(2-hydroxy-ethyl)-piperidin-4-ylamino]-benzoimidazol-1-ylmethyl}-6-methyl-pyridin-3-ol hydrochloride salt]
EC50 [1]: 12.6 nM | melting point: 185 °C

SMILES: Cc1cccc(NCc2cc(C)c3nc(NC4CCN(CCO)CC4)n(Cc4nc(C)ccc4O)c3c2)c1 [Compound 171, 2-[2-[1-(2-Hydroxy-ethyl)-piperidin-4-ylamino]-4-methyl-6-(m-tolylamino-methyl)-benzoimidazol-1-ylmethyl]-6-methyl-pyridin-3-ol]
EC50 [1]: 3.16 nM | melting point: 123 °C

SMILES: Cc1cc(C)cc(NCc2ccc3nc(NCCCN4CCN(C)CC4)n(Cc4nc(C)ccc4O)c3c2)c1 [Compound 174, 2-{6-[(3,5-Dimethyl-phenylamino)-methyl]-2-[3-(4-methyl-piperazin-1-yl)-propylamino]-benzoimidazol-1-ylmethyl}-6-methyl-pyridin-3-ol]
EC50 [1]: 3.98 nM | melting point: 150 °C

Continued, values first:

EC50 [1]: 1.58 nM | melting point: 161 °C
SMILES: Cc1cc(C)cc(NCc2ccc3nc(NCCCN4CCCCC4)n(Cc4nc(C)ccc4O)c3c2)c1 [Compound 173, 2-[6-[(3,5-dimethyl-phenylamino)-methyl]-2-(3-piperidin-1-yl-propylamino)-benzoimidazol-1-ylmethyl]-6-methyl-pyridin-3-ol]

EC50 [1]: 31.6 nM | melting point: 128 °C
SMILES: Cc1cc(C)cc(NCc2ccc3nc(NCC(O)CO)n(Cc4nc(C)ccc4O)c3c2)c1 (centres unmarked) [Compound 175, 3-[6-[(3,5-dimethyl-phenylamino)methyl]-1-(3-hydroxy-6-methyl-pyridin-2-ylmethyl)-1H-benzoimidazol-2-ylamino]-propane-1,2-diol]

EC50 [1]: > 100000 nM | melting point: 178 °C
SMILES: COc1ccc(CCNc2nc3ccc(CNc4cc(C)cc(C)c4)cc3n2Cc2nc(C)ccc2O)cc1 [Compound 190, 2-{6-[(3,5-Dimethyl-phenylamino)-methyl]-2-[2-(4-methoxy-phenyl)-ethylamino]-benzoimidazol-1-ylmethyl}-6-methyl-pyridin-3-ol]
